This passage reports EC50 and IC50 results from US8071581B2, “Triazolopyridazine protein kinase modulators” (SGX Pharmaceuticals, Inc., priority 2006, dated 2011).

One assay relates to GTL16. Put plainly: GTL16 cell assay (EC50). It is filed as cell-based. Particulars: Homo sapiens, GTL 16. On the procedure:
Compounds were tested in the following assays in duplicate. 96-well XTT assay: Cells were grown in growth media containing various concentrations of compounds (duplicates) on a 96-well flat bottom plate for 72 hours at 37° C. in 5% CO2. The starting cell number was 5000 cells per well and volume was 120 μl. At the end of the 72-hour incubation, 40 μl of XTT labeling mixture (50:1 solution of sodium 3′-[1-(phenylaminocarbonyl)-3,4-tetrazolium]-bis(4-methoxy-6-nitro) benzene sulfonic acid hydrate and Electron-coupling reagent: PMS (N-methyl dibenzopyrazine methyl sulfate) were added to each well of the plate. After an additional 2-6 hours […] with a spectrophotometer.

The target of assay [1] is MET kinase (c-MET), kinase domain of human Met (Homo sapiens, UniProt P08581). Briefly: MET luminescence-based enzyme assay (Kinase-Glo).
Sequence of MET kinase (c-MET), kinase domain of human Met (P08581 1078-1345 limits assumed): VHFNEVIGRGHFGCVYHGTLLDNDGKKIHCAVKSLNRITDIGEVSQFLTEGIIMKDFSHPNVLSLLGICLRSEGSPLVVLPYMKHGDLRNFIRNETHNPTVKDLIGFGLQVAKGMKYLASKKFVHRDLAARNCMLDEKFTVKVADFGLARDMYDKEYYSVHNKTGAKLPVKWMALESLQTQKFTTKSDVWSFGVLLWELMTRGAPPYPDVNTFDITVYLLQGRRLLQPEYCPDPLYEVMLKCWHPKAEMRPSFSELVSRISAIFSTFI

Bounds are passed on as bounds.

Take `Fc1cc2ncccc2c(F)c1Cc1nnc2ccc(Cl)nn12` [compound 111, 6-(6-Chloro-[1,2,4]triazolo[4,3-b]pyridazin-3-ylmethyl)-5,7-difluoro-quinoline]: the EC50 with GTL16 (Table 1) lay in the range of 100 to 1000 nM. The same compound returned an IC50 in assay [1] of 100 to 1000 nM.
Compound `c1cnc2ccc(Cc3nnc4ccc(N5CCCCC5)nn34)cc2c1` [compound 112] gave an EC50 with GTL16 (Table 1) of 100 to 1000 nM. In assay [1], this compound had an IC50 of 100 to 1000 nM.
`CN1CCN(c2ccc3nnc(Cc4ccc5ncccc5c4)n3n2)CC1` [compound 113] yielded an EC50 in the assay on GTL16 (Table 1) of 100 to 1000 nM. Also, the IC50 in assay [1] lay in the range of 100 to 1000 nM.
As to `Brc1cnc2ccc(Cc3nnc4nccnn34)cc2c1` [compound 117, 3-Bromo-6-[1,2,4]triazolo[4,3-b][1,2,4]triazin-3-ylmethyl-quinoline], the EC50 with GTL16 (Table 1) is < 100 nM. Besides, the IC50 in assay [1] was < 100 nM.
For `Cn1cc(-c2cnc3ccc(Cc4nnc5ccc(C(F)(F)F)nn45)cc3c2)cn1` [compound 123, 3-(1-Methyl-1H-pyrazol-4-yl)-6-(6-trifluoromethyl-[1,2,4]triazolo[4,3-b]pyridazin-3-ylmethyl)-quinoline], the EC50 with GTL16 (Table 2) is 100 to 1000 nM. Besides, the IC50 in assay [1] is < 100 nM.
In the same order, the values of `Cc1ccc2nnc(Cc3ccc4ncc(-c5cn[nH]c5)cc4c3)n2n1` [compound 125, 6-(6-Methyl-[1,2,4]triazolo[4,3-b]pyridazin-3-ylmethyl)-3-(1H-pyrazol-4-yl)-quinoline] are 100 to 1000 nM and < 100 nM.
In the same order, the values of `Cc1ccc2nnc(Cc3ccc4ncc(-c5cnn(C6CCNCC6)c5)cc4c3)n2n1` [compound 126] are < 100 nM and < 100 nM.
On the same counts, the results for `Cc1ccc2nnc(Cc3ccc4ncc(-c5cc(F)cc(F)c5)cc4c3)n2n1` [compound 128] are 1000 to 10000 nM and 100 to 1000 nM.
Turning to `Cc1ccc2nnc(Cc3ccc4ncc(-c5cncnc5)cc4c3)n2n1` [compound 129], the EC50 in the assay with GTL16 (Table 2) fell in the range of 1000 to 10000 nM. The compound also returned an IC50 in assay [1] of 100 to 1000 nM.
In the same order, the values of `Cc1ccc2nnc(Cc3ccc4ncc(-c5cccc(C#N)c5)cc4c3)n2n1` [compound 130] are < 100 nM and < 100 nM.
For `Cc1ccc2nnc(Cc3ccc4ncc(-c5cccnc5)cc4c3)n2n1` [compound 131], in the assay on GTL16 (Table 2), the EC50 was < 100 nM. For the same compound, the half-inhibitory concentration (IC50) in assay [1] is < 100 nM.
For the compound `Cc1ccc2nnc(Cc3ccc4ncc(-n5ccnc5)cc4c3)n2n1` [compound 132, 3-Imidazol-1-yl-6-(6-methyl-[1,2,4]triazolo[4,3-b]pyridazin-3-ylmethyl)-quinoline], the EC50 with GTL16 (Table 2) was in the range of 100 to 1000 nM. In assay [1], this compound gave an IC50 of 100 to 1000 nM.
In the case of `Cc1ccc2nnc(Cc3ccc4ncc(-c5cnn(CCN6CCOCC6)c5)cc4c3)n2n1` [compound 133], in the assay with GTL16 (Table 2), the EC50 was < 100 nM. In assay [1], the IC50 is < 100 nM.
In the assay on GTL16 (Table 2), `Cc1ccc2nnc(Cc3ccc4ncc(-c5cnn(CC(=O)O)c5)cc4c3)n2n1` [compound 134] gave an EC50 of 100 to 1000 nM. The IC50 in assay [1] is < 100 nM.
In the assay with GTL16 (Table 2), `Cc1ccc2nnc(Cc3ccc4ncc(-c5cccc(C(=O)O)c5)cc4c3)n2n1` [compound 135] came in with an EC50 of 1000 to 10000 nM. In assay [1], this compound had an IC50 of 100 to 1000 nM.
`Cc1ccc2nnc(Cc3ccc4ncc(-c5ccc(C(=O)O)cc5)cc4c3)n2n1` [compound 136] had an EC50 in the assay with GTL16 (Table 2) of 1000 to 10000 nM. In assay [1], the 50% inhibitory concentration (IC50) is 100 to 1000 nM.
On the same counts, the results for `Cc1ccc2nnc(Cc3ccc4ncc(-c5cc6ccccc6[nH]5)cc4c3)n2n1` [compound 137] are 100 to 1000 nM and < 100 nM.
With `Cc1ccc2nnc(Cc3ccc4ncc(-c5ccc[nH]5)cc4c3)n2n1` [compound 138], the EC50 in the assay with GTL16 (Table 2) is 1000 to 10000 nM. Besides, the IC50 in assay [1] was < 100 nM.
As for `Cn1cc(-c2cnc3ccc(Cc4nnc5cccnn45)cc3c2)cn1` [compound 139], in the assay with GTL16 (Table 2), the EC50 was < 100 nM. Further, in assay [1], the IC50 is < 100 nM.
For the compound `COc1ccc2nnc(Cc3ccc4ncc(-c5cnn(C)c5)cc4c3)n2n1` [compound 140, 6-(6-Methoxy-[1,2,4]triazolo[4,3-b]pyridazin-3-ylmethyl)-3-(1-methyl-1H-pyrazol-4-yl)-quinoline], in the assay on GTL16 (Table 2), the EC50 is < 100 nM. In assay [1], the IC50 is < 100 nM.
As for `Cn1cc(-c2cnc3ccc(Cc4nnc5ccc(-c6cnn(C)c6)nn45)cc3c2)cn1` [compound 141], the EC50 in the assay with GTL16 (Table 2) was < 100 nM. In addition, the IC50 in assay [1] is < 100 nM.
`Cc1ccc2nnc(Cc3ccc4ncc(-c5cnc[nH]5)cc4c3)n2n1` [compound 142, 3-(1H-Imidazol-4-yl)-6-(6-methyl-[1,2,4]triazolo[4,3-b]pyridazin-3-ylmethyl)-quinoline]: in the assay with GTL16 (Table 2), the EC50 was in the range of 100 to 1000 nM. In assay [1], this compound registered an IC50 of 100 to 1000 nM.
As to `CCC(=O)Cn1cc(-c2cnc3ccc(Cc4nnc5ccc(C)nn45)cc3c2)cn1` [compound 143], in the assay with GTL16 (Table 2), the EC50 was < 100 nM. Further, the IC50 in assay [1] was < 100 nM.
Compound `Cc1ccc2nnc(Cc3ccc4ncc(-c5cnn(CCO)c5)cc4c3)n2n1` [compound 144, 2-{4-[6-(6-Methyl-[1,2,4]triazolo[4,3-b]pyridazin-3-ylmethyl)-quinolin-3-yl]pyrazol-1-yl}-ethanol] returned a concentration for a half-maximal effect (EC50) in the assay with GTL16 (Table 2) of 100 to 1000 nM. Besides, the IC50 in assay [1] is < 100 nM.
On the same counts, the results for `Cc1ccc2nnc(Cc3c(F)cc4ncc(-c5cnn(C)c5)cc4c3F)n2n1` [compound 145, 5,7-Difluoro-3-(1-methyl-1H-pyrazol-4-yl)-6-(6-methyl-[1,2,4]triazolo[4,3b]pyridazin-3-ylmethyl)-quinoline] are < 100 nM and < 100 nM.
In the same order, the values of `Cc1ccc2nnc(Cc3c(F)cc4ncc(-c5cnn(CCN6CCOCC6)c5)cc4c3F)n2n1` [compound 146] are < 100 nM and < 100 nM.
On the same counts, the results for `COCCn1cc(-c2cnc3ccc(Cc4nnc5ccc(C)nn45)cc3c2)cn1` [compound 147] are < 100 nM and < 100 nM.
Consider `Cc1ccc2nnc(Cc3ccc4ncc(-c5cnn(CCC#N)c5)cc4c3)n2n1` [compound 148], for which the EC50 with GTL16 (Table 2) is < 100 nM. The IC50 in assay [1] was < 100 nM.
Compound `Cc1ccc2nnc(Cc3ccc4ncc(-c5cnn(CC(N)=O)c5)cc4c3)n2n1` [compound 149, 2-{4-[6-(6-Methyl-[1,2,4]triazolo[4,3-b]pyridazin-3-ylmethyl)-quinolin-3-yl]-pyrazol-1-yl}-acetamide] came in with an EC50 in the assay on GTL16 (Table 2) of 1000 to 10000 nM. Besides, the IC50 in assay [1] was < 100 nM.
In the same order, the values of `Cc1ccc2nnc(Cc3c(F)cc4ncc(-c5cnn(CC(=O)O)c5)cc4c3F)n2n1` [compound 151] are 1000 to 10000 nM and < 100 nM.
On the same counts, the results for `Cc1ccc2nnc(Cc3ccc4ncc(-c5cnn(C6CNC6)c5)cc4c3)n2n1` [compound 153] are 100 to 1000 nM and < 100 nM.
In turn, `Cc1ccc2nnc(Cc3ccc4ncc(-c5cnn(CCC(N)=O)c5)cc4c3)n2n1` [compound 154] registered a 50% effective concentration (EC50) in the assay with GTL16 (Table 2) of 100 to 1000 nM. Further, the IC50 in assay [1] was < 100 nM.
In the same order, the values of `Cc1ccc2nnc(Cc3ccc4ncc(-c5cnn(CC6CNC6)c5)cc4c3)n2n1` [compound 155, 3-(1-Azetidin-3-ylmethyl-1H-pyrazol-4-yl)-6-(6-methyl-[1,2,4]triazolo[4,3-b]pyridazin-3-ylmethyl)-quinoline] are 100 to 1000 nM and < 100 nM.
As for `CCc1ccc2nnc(Cc3ccc4ncc(-c5cnn(C)c5)cc4c3)n2n1` [compound 157, 6-(6-Ethyl-[1,2,4]triazolo[4,3-b]pyridazin-3-ylmethyl)-3-(1-methyl-1H-pyrazol-4-yl)-quinoline], in the assay on GTL16 (Table 2), the EC50 is < 100 nM. Further, in assay [1], the IC50 was < 100 nM.
For the compound `Cc1ccc2nnc(Cc3cc4cc(-c5cnn(C)c5)cnc4cc3F)n2n1` [compound 158], in the assay on GTL16 (Table 2), the EC50 was < 100 nM. Moreover, the IC50 in assay [1] is < 100 nM.
For `CN(C)c1ccc2nnc(Cc3ccc4ncc(-c5cnn(C)c5)cc4c3)n2n1` [compound 159, Dimethyl-{3-[3-(1-methyl-1H-pyrazol-4-yl)-quinolin-6-ylmethyl]-[1,2,4]triazolo[4,3-b]pyridazin-6-yl}-amine], in the assay with GTL16 (Table 2), the EC50 was < 100 nM. Moreover, the 50% inhibitory concentration (IC50) in assay [1] is < 100 nM.
As for `CNc1ccc2nnc(Cc3ccc4ncc(-c5cnn(C)c5)cc4c3)n2n1` [compound 160], in the assay with GTL16 (Table 2), the EC50 is < 100 nM. Besides, the IC50 in assay [1] is < 100 nM.
Take `Cn1cc(-c2cnc3ccc(Cc4nnc5ccc(N)nn45)cc3c2)cn1` [compound 161]: the EC50 in the assay on GTL16 (Table 2) is < 100 nM. For the same compound, the 50% inhibitory concentration (IC50) in assay [1] was < 100 nM.
In the case of `CCn1cc(-c2cnc3ccc(Cc4nnc5ccc(C)nn45)cc3c2)cn1` [compound 162], in the assay with GTL16 (Table 2), the EC50 is < 100 nM. For the same compound, the IC50 in assay [1] was < 100 nM.
Take `CCCn1cc(-c2cnc3ccc(Cc4nnc5ccc(C)nn45)cc3c2)cn1` [compound 163]: in the assay with GTL16 (Table 2), the EC50 is < 100 nM. Besides, the IC50 in assay [1] was < 100 nM.
Turning to `Cc1ccc2nnc(Cc3ccc4ncc(-c5cnn(C6(C(=O)O)CCC6)c5)cc4c3)n2n1` [compound 164], the EC50 in the assay on GTL16 (Table 2) fell in the range of 1000 to 10000 nM. The IC50 in assay [1] was < 100 nM.
On the same counts, the results for `CCc1ccc2nnc(Cc3cc4cc(-c5cnn(C)c5)cnc4cc3F)n2n1` [compound 165] are < 100 nM and < 100 nM.
As to `CCc1ccc2nnc(Cc3c(F)cc4ncc(-c5cnn(C)c5)cc4c3F)n2n1` [compound 166, 6-(6-Ethyl-[1,2,4]triazolo[4,3-b]pyridazin-3-ylmethyl)-5,7-difluoro-3-(1-methyl-1H-pyrazol-4-yl)-quinoline], the EC50 in the assay on GTL16 (Table 2) was < 100 nM. Further, in assay [1], the IC50 was < 100 nM.
Regarding `Cn1cc(-c2cnc3cc(F)c(Cc4nnc5cccnn45)cc3c2)cn1` [compound 167], the concentration giving a half-maximal response (EC50) in the assay with GTL16 (Table 2) lay in the range of 10000 to 50000 nM. For the same compound, the IC50 in assay [1] was < 100 nM.
On to `Cc1ccc2nnc(Cc3ccc4ncc(-c5cnn(CCN(C)C)c5)cc4c3)n2n1` [compound 168], for which, in the assay on GTL16 (Table 2), the EC50 was < 100 nM. In addition, in assay [1], the IC50 was < 100 nM.
